Tests used:
HL-60 = test: Cytotoxicity against human HL60 cells assessed as reduction in cell viability after 48 hrs by MTS assay; assay type: functional, cell-based; details: HL-60, 48 h
A549 = test: Cytotoxicity against human A549 cells assessed as reduction in cell viability after 48 hrs by MTS assay; assay type: functional, cell-based; details: A549, 48 h
SMMC-7721 = test: Cytotoxicity against human SMMC-7721 cells assessed as reduction in cell viability after 48 hrs by MTS assay; assay type: functional, cell-based; details: SMMC-7721, 48 h
SW480 = test: Cytotoxicity against human SW480 cells assessed as reduction in cell viability after 48 hrs by MTS assay; assay type: functional, cell-based; details: SW480, 48 h
BEAS-2B = test: Cytotoxicity against human BEAS2B cells assessed as reduction in cell viability after 48 hrs by MTS assay; assay type: cell-based
MCF7 = test: Cytotoxicity against human MCF7 cells assessed as reduction in cell viability after 48 hrs by MTS assay; assay type: functional, cell-based; details: MCF7, 48 h

SMILES	IC50 (HL-60)	IC50 (A549)	IC50 (SMMC-7721)	IC50 (SW480)	IC50 (BEAS-2B)	IC50 (MCF7)
CC(C)c1cc2c(cc1O)C(=O)C[C@H]1C(C)(C)CCC[C@]21C	> 10 µM	> 10 µM	> 10 µM	> 10 µM	> 10 µM	> 10 µM
CC(C)c1cc2c(cc1O)[C@@]1(C)C[C@H](O)CC(C)(C)[C@@H]1CC2	> 10 µM	> 10 µM	> 10 µM	> 10 µM	> 10 µM	> 10 µM
CC(C)C1=C(O)C(=O)C2=C(C=C3C(C)(C)CCC[C@@]32C)C1=O	> 10 µM	> 10 µM	> 10 µM	> 10 µM	> 10 µM	> 10 µM
CC(C)c1cc2c(c(O)c1O)[C@@]1(C)CCC[C@](C)(CO)C1=C(O)C2=O	> 10 µM	> 10 µM	> 10 µM	> 10 µM	> 10 µM	> 10 µM
CC(C)c1cc(O)c2c(c1O)C(=O)C[C@H]1C(C)(C)CCC[C@]21C	> 10 µM	> 10 µM	> 10 µM	> 10 µM	> 10 µM	> 10 µM
CC(C)C1=C(O)C(=O)C2=C(C=C[C@H]3C(C)(C)CCC[C@]3(C)O2)C1=O	> 10 µM	> 10 µM	> 10 µM	> 10 µM	> 10 µM	> 10 µM
CC(C)c1cc(C(=O)O)c2c(c1O)O[C@]1(O)[C@@](C)(CO)CCC[C@]21C	> 10 µM	> 10 µM	> 10 µM	> 10 µM	> 10 µM	> 10 µM
CC(C)c1cc2c(c(O)c1O)[C@@]1(C)CCCC(C)(C)[C@@H]1[C@H](O)C2=O	> 10 µM	> 10 µM	> 10 µM	> 10 µM	> 10 µM	> 10 µM
CO[C@@H]1C2=C(C(=O)C(O)=C(C(C)C)C2=O)[C@@]2(C)CCCC(C)(C)[C@H]12	> 10 µM	> 10 µM	> 10 µM	> 10 µM	> 10 µM	> 10 µM
Cc1ccc2cc(C(C)C)c(O)c3c2c1C(=O)CCC(C)(C)O3	> 10 µM	> 10 µM	> 10 µM	> 10 µM	> 10 µM	> 10 µM
CC(C)c1c(O)c(C=O)c2c(c1O)OC(O)[C@H]1C(C)(C)CCC[C@]21C (some centres undefined)	> 10 µM	> 10 µM	> 10 µM	> 10 µM	> 10 µM	> 10 µM
CC(C)c1cc(C(=O)O)c2c(c1O)O[C@]1(O)C(C)(C)[C@@H](O)CC[C@]21C	> 10 µM	> 10 µM	> 10 µM	> 10 µM	> 10 µM	> 10 µM
COc1c(O)c2c(c(C=O)c1C(C)C)[C@H](O)[C@H]1C(C)(C)CCC[C@]21C	> 10 µM	> 10 µM	> 10 µM	> 10 µM	> 10 µM	> 10 µM
CC(C)C1=C[C@]23CC[C@@H]4C(=CCCC4(C)C)[C@H]2CC(=O)[C@]3(O)C1=O	> 10 µM	> 10 µM	> 10 µM	> 10 µM	> 10 µM	> 10 µM
CC(C)c1cc2c(cc1O)C=C[C@H]1C(C)(C)CCC[C@]21C	> 10 µM	> 10 µM	> 10 µM	> 10 µM	> 10 µM	> 10 µM
CC(C)c1c(O)c(O)c2c(c1C=O)[C@H](O)[C@H]1C(C)(C)CCC[C@]21C	> 10 µM	> 10 µM	> 10 µM	> 10 µM	> 10 µM	> 10 µM
CC(C)c1cc(C=O)c2c(c1O)OC(O)[C@H]1C(C)(C)CCC[C@]21C (some centres undefined)	> 10 µM	> 10 µM	> 10 µM	> 10 µM	> 10 µM	> 10 µM
CC(C)C1=C(O)C(=O)C2=C(C1=O)[C@H](O)[C@H]1C(C)(C)CCC[C@]21C	> 10 µM	> 10 µM	> 10 µM	> 10 µM	> 10 µM	> 10 µM
CC(C)c1cc2c(c(O)c1O)[C@@]1(C)CCCC(C)(C)C1=C(O)C2=O [14-DEOXYCOLEON U]	6.2 µM	8.4 µM	9.2 µM	> 10 µM	> 10 µM	5.6 µM
COc1c(C(C)C)cc2c(c1O)[C@@]1(C)CCCC(C)(C)[C@@H]1CC2=O [CRYPTOJAPONOL]	> 10 µM	> 10 µM	> 10 µM	> 10 µM	> 10 µM	> 10 µM
CC(C)c1cc2c(c(O)c1O)[C@@]1(C)CCCC(C)(C)[C@@H]1CC2=O [DEMETHYLCRYPTOJAPONOL]	> 10 µM	> 10 µM	> 10 µM	> 10 µM	> 10 µM	> 10 µM
CC(C)c1cc2c(cc1O)[C@@]1(C)CC[C@H](O)C(C)(C)[C@@H]1CC2 [HINOKIOL]	> 10 µM	> 10 µM	> 10 µM	> 10 µM	> 10 µM	> 10 µM
CC(C)c1cc2c(c(O)c1O)[C@@]1(C)CCCC(C)(C)C1=CC2=O [SALVINOLONE]	> 10 µM	> 10 µM	> 10 µM	> 10 µM	> 10 µM	> 10 µM
CC(C)c1cc2c(cc1O)[C@@]1(C)CCCC(C)(C)[C@@H]1CC2=O [SUGIOL]	> 10 µM	> 10 µM	> 10 µM	> 10 µM	> 10 µM	> 10 µM

From ChEMBL document CHEMBL4811267, “Structurally Diverse Diterpenoids from the Roots of Salvia deserta Based on Nine Different Skeletal Types” (J Nat Prod, 2021)
